According to US20110230428A1, “CERTAIN KYNURENINE-3-MONOOXYGENASE INHIBITORS, PHARMACEUTICAL COMPOSITIONS, AND METHODS OF USE THEREOF” (priority 2008, published 2011):
Where a name gives a salt, the structure may show the parent alone.

Each compound was assayed against T1, KMO mouse enzyme (Mus musculus, UniProt Q91WN4) (assay: KMO mouse enzyme assay: L-Kynurenine hydroxylation to 3OH-KYN by LC/MS). Details: compound at 10 μM; KMO from mouse liver mitochondria; read-out: INH.Mouse @ 10 μM.
T1 construct: KMO enzyme prepared at Evotec from mouse liver (4-6 weeks old) via mitochondria isolation; from tissue; host or cells: mouse liver (4-6 weeks old), isolated mitochondria
T1 sequence (Q91WN4 whole entry): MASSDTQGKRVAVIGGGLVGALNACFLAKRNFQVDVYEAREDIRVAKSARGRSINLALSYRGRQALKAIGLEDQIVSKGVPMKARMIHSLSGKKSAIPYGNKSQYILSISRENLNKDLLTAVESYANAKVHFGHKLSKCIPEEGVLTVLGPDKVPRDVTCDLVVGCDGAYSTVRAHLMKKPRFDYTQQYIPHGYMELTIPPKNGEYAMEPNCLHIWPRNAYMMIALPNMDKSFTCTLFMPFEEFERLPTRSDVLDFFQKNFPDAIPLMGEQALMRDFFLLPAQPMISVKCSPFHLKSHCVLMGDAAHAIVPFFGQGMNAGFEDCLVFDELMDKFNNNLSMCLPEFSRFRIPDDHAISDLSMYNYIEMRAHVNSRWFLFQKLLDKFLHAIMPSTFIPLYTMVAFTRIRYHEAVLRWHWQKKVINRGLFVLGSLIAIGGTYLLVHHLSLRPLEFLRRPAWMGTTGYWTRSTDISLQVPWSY
Format: biochemical
Experimental: A method of monitoring L-Kynurenine (KYN) hydroxylation to form 3-Hydroxy-Kynurenine (3OH-KYN) by LC/MS is described. Product is quantified by multiple reaction monitoring (MRM method).
• Compound: Stock concentrations: 10 mM in 100% DMSO • Enzyme: KMO enzyme prepared at Evotec from mouse liver (4-6 weeks old) via mitochondria isolation as described in the literature • Substrate: L-Kynurenine (Sigma: Cat# K3750, stock concentration: 10 mM in 100 mM potassium phosphate buffer, pH 7.4)
• Buffer: 100 mM potassium phosphate, pH 7.4, 200 μM NADPH, 0.4 U/ml G6P-DH (Glucose 6-phosphate Dehydrogenase), 3 mM G6P (D-Glucose 6-phosphate) • Assay Volume: 40 μl • Plate Format: 384 well plate, transparent (Matrix) • Read-Out: product (3OH-KYN) quantification using product specific MRM • Reader: LC/MS/MS
• prepare serial dilution (factor 3) of compound in 100% DMSO (top concentration=10 mM, 100% DMSO) • [8 points: 10 mM; 3.33 mM; 1.11 mM; 0.37 mM; 0.12 mM; 0.04 mM; 0.0137 mM; 0.0045 mM, 0.0015 mM] • prepare […] solution of each compound concentration (top concentration 300 μM, 3% DMSO) in assay buffer • [concentrations: 300 μM; 100 μM; 33.3 μM; 11.1 μM; 3.70 μM; 1.23 μM; 0.41 μM; 0.137 μM] • prepare substrate (10 mM) at concentration of 1 mM in assay buffer • assay mix: 4 μl compound/well of each concentration+24 μl assaybuffer/well+8 μl KMO mouse enzyme+4 μl 1 mM substrate (final concentration=100 μM) • [final compound top concentration: 30 μM; 0.3% DMSO] • [final compound bottom concentration: 0.0137 μM; 0.3% DMSO] • positive control: 4 μl 50 μM FCE28833 in assay buffer, 0.5% DMSO [final assay concentration=5 μM]+24 μl assaybuffer/well+8 μl KMO mouse enzyme+4 μl 1 mM substrate [final concentration=100 μM] • negative control: 28 μl assay buffer/well+8 μl KMO mouse enzyme+4 μl 1 mM substrate [final concentration=100 μM] • incubate 40 min at RT • add 40 μl/well 10% trichloro acetic acid in water to stop the assay and precipitate protein • centrifuge plate for 3 min at 4000 rpm • product detection by LC/MS (injection of 20 μl/well, 2 fold overfill of the 10 μl sample loop) Data analysis: IC50's are calculated using automated fitting algorithm (A+Analysis).
Using procedures similar to those described herein, the following compounds were assayed for activity.
With `CO/N=C(\CCC(=O)OC(C)C)c1ccc(Cl)c(Cl)c1` [4-(3,4-Dichloro-phenyl)-4-methoxyimino-butyric acid isopropyl ester] the inhibition at 10 µM was 102%.
For `CO/N=C(\CCC(=O)OC)c1ccc(Cl)c(Cl)c1` [4-(3,4-Dichloro-phenyl)-4-methoxyimino-butyric acid methyl ester], the inhibition at 10 µM was 106%.
For `CO/N=C(\CCC(=O)Oc1cccnc1)c1ccc(Cl)c(Cl)c1` [4-(3,4-Dichloro-phenyl)-4-methoxyimino-butyric acid pyridin-3-yl ester], the inhibition at 10 µM was 105%.
Compound `CO/N=C(\CCC(=O)OC1CCOCC1)c1ccc(Cl)c(Cl)c1` [4-(3,4-Dichloro-phenyl)-4-methoxyimino-butyric acid tetrahydro-pyran-4-yl ester] has an inhibition at 10 µM of 102%.
For `CO/N=C(\CCC(=O)O)c1ccc(Cl)c(Cl)c1` [4-(3,4-Dichloro-phenyl)-4-methoxyimino-butyric acid], the inhibition at 10 µM was 106%.
With `CON=C(CCC#N)c1ccc(Cl)c(Cl)c1` [4-(3,4-Dichloro-phenyl)-4-methoxyimino-butyronitrile] the inhibition at 10 µM was 74.6%.
In the case of `CON=C(CCC(=O)NCC(O)CO)c1ccc(Cl)c(Cl)c1` (stereo not shown) [4-(3,4-Dichloro-phenyl)-N-(2,3-dihydroxy-propyl)-4-methoxyimino-butyramide], the inhibition at 10 µM is reported as 75.7%.
`CON=C(CCC(=O)Nc1c(C)ccnc1C)c1ccc(Cl)c(Cl)c1` [4-(3,4-Dichloro-phenyl)-N-(2,4-dimethyl-pyridin-3-yl)-4-methoxyimino-butyramide] showed an inhibition at 10 µM of 85%.
`CON=C(CCC(=O)Nc1ccc(C)nc1C)c1ccc(Cl)c(Cl)c1` [4-(3,4-Dichloro-phenyl)-N-(2,6-dimethyl-pyridin-3-yl)-4-methoxyimino-butyramide] gave an inhibition at 10 µM of 93%.
`CON=C(CCC(=O)NCCO)c1ccc(Cl)c(Cl)c1` [4-(3,4-Dichloro-phenyl)-N-(2-hydroxy-ethyl)-4-methoxyimino-butyramide] gave an inhibition at 10 µM of 95.7%.
`CON=C(CCC(=O)NCC(C)O)c1ccc(Cl)c(Cl)c1` (stereo not shown) [4-(3,4-Dichloro-phenyl)-N-(2-hydroxy-propyl)-4-methoxyimino-butyramide] was tested, and the inhibition at 10 µM was 98.8%.
`CON=C(CCC(=O)Nc1ncc(C)nc1C)c1ccc(Cl)c(Cl)c1` [4-(3,4-Dichloro-phenyl)-N-(3,5-dimethyl-pyrazin-2-yl)-4-methoxyimino-butyramide] showed an inhibition at 10 µM of 101%.
`CON=C(CCC(=O)Nc1cncc(F)c1)c1ccc(Cl)c(Cl)c1` [4-(3,4-Dichloro-phenyl)-N-(5-fluoro-pyridin-3-yl)-4-methoxyimino-butyramide] showed an inhibition at 10 µM of 90.3%.
`CON=C(CCC(=O)Nc1ccc(F)nc1)c1ccc(Cl)c(Cl)c1` [4-(3,4-Dichloro-phenyl)-N-(6-fluoro-pyridin-3-yl)-4-methoxyimino-butyramide] gave an inhibition at 10 µM of 91.7%.
Compound `CCNC(=O)CC/C(=N\OC)c1ccc(Cl)c(Cl)c1` [4-(3,4-Dichloro-phenyl)-N-ethyl-4-methoxyimino-butyramide] has an inhibition at 10 µM of 98.9%.
`CO/N=C(\CCC(=O)NC(C)C)c1ccc(Cl)c(Cl)c1` [4-(3,4-Dichloro-phenyl)-N-isopropyl-4-methoxyimino-butyramide] was tested, and the inhibition at 10 µM was 94.3%.
Compound `CO/N=C(\CCC(=O)Nc1ccon1)c1ccc(Cl)c(Cl)c1` [4-(3,4-Dichloro-phenyl)-N-isoxazol-3-yl-4-methoxyimino-butyramide] has an inhibition at 10 µM of 101%.
`CON=C(CCC(=O)N(C)OC)c1ccc(Cl)c(Cl)c1` [4-(3,4-Dichloro-phenyl)-N-methoxy-4-methoxyimino-N-methyl-butyramide] gave an inhibition at 10 µM of 102%.
For `CO/N=C(\CCC(=O)O)c1cc(Cl)cc(Cl)c1` [4-(3,5-Dichloro-phenyl)-4-methoxyimino-butyric acid], the inhibition at 10 µM was 98.7%.
For `CON=C(CCC(=O)O)c1cccc(Cl)c1` [4-(3-Chloro-phenyl)-4-methoxyimino-butyric acid], the inhibition at 10 µM was 101%.
In the case of `COC(=O)CC/C(=N\OCc1ccccc1)c1ccc(Cl)c(Cl)c1` [4-Benzyloxyimino-4-(3,4-dichloro-phenyl)-butyric acid methyl ester], the inhibition at 10 µM is reported as 66%.
`O=C(O)CC/C(=N\OCc1ccccc1)c1ccc(Cl)c(Cl)c1` [4-Benzyloxyimino-4-(3,4-dichloro-phenyl)-butyric acid] gave an inhibition at 10 µM of 61.9%.
Work on `O=C(O)CC/C(=N\OCC1CC1)c1ccc(Cl)c(Cl)c1` [4-Cyclopropylmethoxyimino-4-(3,4-dichloro-phenyl)-butyric acid] yielded an inhibition at 10 µM of 99.6%.
For `NCCON=C(CCC(=O)O)c1ccc(Cl)c(Cl)c1` [4-[2-Amino-ethoxyimino]-4-(3,4-dichloro-phenyl)-butyric acid trifluoroacetic acid salt], the inhibition at 10 µM was 49.5%.
In the case of `COC(=O)CCC(=NOCCNC(=O)OC(C)(C)C)c1ccc(Cl)c(Cl)c1` [4-[2-tert-Butoxycarbonylamino-ethoxyimino]-4-(3,4-dichloro-phenyl)-butyric acid methyl ester], the inhibition at 10 µM is reported as 56.4%.
`CC(C)(C)OC(=O)NCCON=C(CCC(=O)O)c1ccc(Cl)c(Cl)c1` [4-[2-tert-Butoxycarbonylamino-ethoxyimino]-4-(3,4-dichloro-phenyl)-butyric acid] gave an inhibition at 10 µM of 61.9%.
Work on `CO/N=C(\CCC(=O)NC1CCN(C(=O)OC(C)(C)C)CC1)c1ccc(Cl)c(Cl)c1` [4-[4-(3,4-Dichloro-phenyl)-4-methoxyimino-butyrylamino]-piperidine-1-carboxylic acid tert-butyl ester] yielded an inhibition at 10 µM of 75.2%.
Compound `CON=C(CCCC#N)c1ccc(Cl)c(Cl)c1` [5-(3,4-Dichloro-phenyl)-5-methoxyimino-pentanenitrile] has an inhibition at 10 µM of 71.5%.
Compound `CON=C(CCCC(=O)OC)c1ccc(Cl)c(Cl)c1` [5-(3,4-Dichloro-phenyl)-5-methoxyimino-pentanoic acid methyl ester] has an inhibition at 10 µM of 61.2%.
`CON=C(CCCC(=O)O)c1ccc(Cl)c(Cl)c1` [5-(3,4-Dichloro-phenyl)-5-methoxyimino-pentanoic acid] gave an inhibition at 10 µM of 78.3%.
Work on `CON=C(c1ccc(Cl)c(Cl)c1)C1C[C@@H]1C(=O)OC` (stereo partly drawn) [(1S,2S)-trans-2-[(3,4-Dichloro-phenyl)-methoxyimino-methyl]-cyclopropanecarboxylic acid methyl ester] yielded an inhibition at 10 µM of 61%.
`CON=C(c1ccc(Cl)c(Cl)c1)[C@H]1C[C@@H]1C(=O)O` [(1S,2S)-trans-2-[(3,4-Dichloro-phenyl)-methoxyimino-methyl]-cyclopropanecarboxylic acid] was tested, and the inhibition at 10 µM was 81.2%.
`CO/N=C(\CCC(=O)NC1CC1)c1ccc(Cl)c(Cl)c1` [N-Cyclopropyl-4-(3,4-dichloro-phenyl)-4-methoxyimino-butyramide] was tested, and the inhibition at 10 µM was 100%.
In the case of `CON=C(CCC(=O)NCCN(C)C)c1ccc(Cl)c(Cl)c1` [{2-[4-(3,4-Dichloro-phenyl)-4-methoxyimino-butyrylamino]-ethyl}-dimethyl-ammonium trifluoroacetate], the inhibition at 10 µM is reported as 68%.
